Legend:
NHM [1] = test: Pigmentation of NHM, microscopic observation by expert; type: cell-based, human; settings: 10 days
Method: NHM are cultivated and placed in contact with the product according to the invention for 10 days. At the end of this contact period, cells are observed with a microscope and variation of pigmentation of cells versus control is evaluated by an expert.

[2] = tested on: normal human melanocytes (NHM); test: Melanin production by NHM without UV induction (spectrophotometry); type: cell-based; settings: for melanin production by NHM, Variation (%) vs control / Melanin: n = 4; for increase in pigmentation of NHM vs. control: 16 ppm; for Melanin Variation (%) vs control / Melanin: 10 days contact; for Melanin: without UV induction
Method: (§1) NHM are cultivated and placed in contact with the product according to the invention for 10 days. At the end of this contact period, the mats are ground and the melanin is extracted from the cells. The quantity of melanin is assessed by spectrophotometry, using a standard range established previously from a melanin solution and compared to the control. A protein assay using the bicinchoninic acid (BCA) method is performed to estimate the quantity of cells and to standardise the obtained data.
The tests were carried out on NHM, the protocol being the same to the one above of point a)
The protocol is the same as that of point a) above.

keratinocytes [3] = test: IL8 in keratinocytes with UVB (ELISA); type: cell-based; settings: for IL8 with UVB irradiation: n = 2
Method: (§2) Keratinocytes are seeded and cultured and, once at sub-confluence, receive the tyrosine derivative according to the invention, or its solvent, at different concentrations. After 24 hours, the cells are rinsed and then exposed to UVB, and the cells are then re-treated with the media containing the tyrosine derivative according to the invention at different concentrations for 24 hours. Other cases are not exposed. The culture media are assayed for PGE2, IL6 and IL8 using ELISA methods. The number of cells was estimated using the Hoescht method.

keratinocytes [4] = test: IL6 in keratinocytes with UVB (ELISA); type: cell-based; settings: for IL6 with UVB irradiation: n = 2
Method: as §2

[5] = tested on: Normal human keratinocytes (NHK); test: NHK phagocytosis of fluorescent microbeads mimicking melanosomes; type: cell-based; settings: for Phagocytosis (μbeas: (Total Area/1000)): 24 h treatment then beads 3 h, n = 4
Method: Normal human keratinocytes (NHK) are seeded and cultured and, once at 50% sub-confluence, receive the tyrosine derivative according to the invention, or its solvent, at different concentrations for 24 h. At the end of this period, the cells receive the fluorescent microbeads mimicking melanosomes for 3 h. Then, the cells are rinsed to remove excess beads, and the mats are visualized under a fluorescence microscope to quantify phagocytosis. The cell concentration is estimated using the Hoescht method.

keratinocytes [6] = test: PGE2 in keratinocytes with or without UVB (ELISA); type: cell-based; settings: for PGE2 with UVB irradiation / PGE2 without irradiation: n = 3
Method: as §2

fibroblasts = test: PGE2 in fibroblasts with or without UVB (ELISA); type: cell-based; settings: for PGE2 with UVB irradiation / PGE2 without irradiation: n = 3
Method: as §2
The same protocol is applied in parallel to Fibroblasts.

HaCaT keratinoctes [7] = test: Hyaluronic acid production by keratinocytes (ELISA); type: cell-based; settings: 3 days; for Hyaluronic acid: n = 4
Method: (§3) HaCaT keratinoctes are seeded and cultured and, once at sub-confluence, receive the tyrosine derivative according to the invention, or its solvent, at different concentrations for 3 days. At the end of this period, the media are collected for hyaluronic acid and laminin assays using ELISA methods. The cell concentration is estimated using the Hoescht method.

B16 mouse pigment cells [8] = test: Melanin production by B16 mouse pigment cells; type: cell-based; settings: 2 days contact; for Melanin: n = 4
Method: as §1
(§4) B16 mouse pigment cells are cultivated and placed in contact with the product according to the invention for 2 days. For this type of cells, tyrosinase is also assayed. Tyrosinase is the first enzyme in the chain of melanogenesis, changing tyrosine to DOPA-quinone.

B16 mouse pigment cells [9] = test: Number of cells in the B16 melanin test; type: cell-based; settings: tested concentrations 5.5 and 11 ppm
Method: as §1, §4

NHM [10] = test: Number of cells (BCA protein assay) in the NHM melanin test; type: cell-based, human; settings: tested concentrations 5.5 and 11 ppm
Method: as §1

Tyrosinase = Tyrosinase activity by B16 mouse pigment cells; type: cell-based; settings: 2 days contact; for Tyrosinase: n = 4
Method: as §4

HaCaT keratinoctes [11] = test: Laminin production by keratinocytes (ELISA); type: cell-based; settings: 3 days; for Laminin: n = 4
Method: as §3

[12] = 12.5 μM (5.5 ppm of N-Palmitoyl-O-methyl-L-Tyrosine, 5.25 ppm of N-Palmitoyl-L-Tyrosine)
[13] = 25 μM (11 ppm of N-Palmitoyl-O-methyl-L-Tyrosine, 10.5 ppm of N-Palmitoyl-L-Tyrosine)

For `CCCCCCCCCCCCCCCC(=O)N[C@@H](Cc1ccc(O)cc1)C(=O)O` [N-Palmitoyl-L-Tyrosine, reference compound], which “Variation of pigmentation of cells versus control (expert grade)” value (NHM [1]; 12.5 μM) is on record?
The value was 0.

What about the “Variation of pigmentation of cells versus control (expert grade)” value (NHM [1]; 25 μM) of the same compound?
The value was 0.

What about the “melanin production by NHM, Variation (%) vs control” value (from here on “melanin production … (%) vs control”) [2, 12] of the same compound?
The value was “+7%; dns”.

And the “melanin production … (%) vs control” value [2, 13]?
Its value is “+10%; dns”.

`CCCCCCCC/C=C\CCCCCCCCN[C@@H](Cc1ccc(O)cc1)C(=O)O` [oleyl tyrosine, reference compound] was tested. Which “increase in pigmentation of NHM vs. control” value ([2]; NHM) did it give?
The value was 9%.

What about the “increase in NHM pigmentation vs. control” value ([2]; NHM, approximately 3 times more oleyl tyrosine applied than 16 ppm) of the same compound?
Its value is “+35%”.

`CCCCCCCCCCCCCCCC(=O)N[C@@H](Cc1ccc(OC)cc1)C(=O)O` [N-Palmitoyl-O-methyl-L-Tyrosine] was tested. Which “melanin production … (%) vs control” value [2, 12] did it give?
Its value is “+50%; p < 0.01”.

And the “melanin production … (%) vs control” value [2, 13]?
Its value is “+86%; p < 0.01”.

And the “increase in pigmentation of NHM vs. control” value ([2]; NHM)?
The value was 52%.

And the “Melanin Variation (%) vs control” value ([2]; NHM, 5.5 ppm)?
The value was “+50%; p < 0.01”.

What about the Melanin ([2]; NHM, 5.5 ppm) of the same compound?
The Melanin was 404 +/− 42 μg/mL/10^6 cell.

What about the “Melanin Variation (%) vs control” value ([2]; NHM, 11 ppm) of the same compound?
Its value is “+86%; p < 0.01”.

And the Melanin ([2]; NHM, 11 ppm)?
Its Melanin is 501 +/− 41 μg/mL/10^6 cell.

And the “IL8 with UVB irradiation Variation (%) vs control” value (keratinocytes [3]; 5.5 ppm)?
The value was −42%; p < 0.01.

And the “IL8 with UVB irradiation” value (keratinocytes [3]; 5.5 ppm)?
Its value is 4.3 +/− 0.7 ng/10^6 cell.

What about the “IL8 with UVB irradiation Variation (%) vs control” value (keratinocytes [3]; 11 ppm) of the same compound?
Its value is −90%; p < 0.01.

What about the “IL8 with UVB irradiation” value (keratinocytes [3]; 11 ppm) of the same compound?
Its value is 0.7 +/− 0 ng/10^6 cell.

And the “IL6 with UVB irradiation Variation (%) vs control” value (keratinocytes [4]; 5.5 ppm)?
Its value is −43%; p < 0.01.

And the “IL6 with UVB irradiation” value (keratinocytes [4]; 5.5 ppm)?
The value was 880 +/− 142 ng/10^6 cell.

And the “IL6 with UVB irradiation Variation (%) vs control” value (keratinocytes [4]; 11 ppm)?
The value was −45%; p < 0.01.

And the “IL6 with UVB irradiation” value (keratinocytes [4]; 11 ppm)?
The value was 853 +/− 115 ng/10^6 cell.

What about the “Phagocytosis Variation (%) vs control” value ([5]; 5.5 ppm) of the same compound?
Its value is “+71%; p < 0.01”.

And the “Phagocytosis Variation (%) vs control” value ([5]; 11 ppm)?
Its value is “+129%; p < 0.01”.

What about the “Phagocytosis (μbeas: (Total Area/1000))” value ([5]; 5.5 ppm) of the same compound?
Its value is 6599 +/− 1115 Total Area/1000.

What about the “Phagocytosis (μbeas: (Total Area/1000))” value ([5]; 11 ppm) of the same compound?
The value was 9910 +/− 1161 Total Area/1000.

What about the “PGE2 with UVB irradiation Variation (%) vs control” value (keratinocytes [6]; 5.5 ppm) of the same compound?
The value was −62%; p < 0.01.

And the “PGE2 without irradiation Variation (%) vs control” value (keratinocytes [6]; 5.5 ppm)?
The value was −60%; p < 0.01.

And the “PGE2 with UVB irradiation” value (keratinocytes [6]; 5.5 ppm)?
The value was 101 +/− 7 ng/10^6 cell.

And the PGE2 without irradiation (keratinocytes [6]; 5.5 ppm)?
The PGE2 without irradiation was 51 +/− 5 ng/10^6 cell.

What about the “PGE2 with UVB irradiation Variation (%) vs control” value (keratinocytes [6]; 11 ppm) of the same compound?
The value was −73%; p < 0.01.

And the “PGE2 without irradiation Variation (%) vs control” value (keratinocytes [6]; 11 ppm)?
Its value is −58%; p < 0.01.

And the “PGE2 with UVB irradiation” value (keratinocytes [6]; 11 ppm)?
Its value is 72 +/− 3 ng/10^6 cell.

And the PGE2 without irradiation (keratinocytes [6]; 11 ppm)?
The PGE2 without irradiation was 54 +/− 5 ng/10^6 cell.

And the “PGE2 without irradiation Variation (%) vs control” value (fibroblasts; 5.5 ppm)?
Its value is −32%; p < 0.01.

What about the “PGE2 with UVB irradiation” value (fibroblasts; 5.5 ppm) of the same compound?
Its value is 7332 +/− 478 ng/10^6 cell.

And the PGE2 without irradiation (fibroblasts; 5.5 ppm)?
The PGE2 without irradiation was 7420 +/− 422 ng/10^6 cell.

And the “PGE2 with UVB irradiation Variation (%) vs control” value (fibroblasts; 5.5 ppm, non significant data)?
Its value is −19%; nsd*.

And the “PGE2 with UVB irradiation Variation (%) vs control” value (fibroblasts; 11 ppm)?
The value was −33%; p < 0.01.

And the “PGE2 without irradiation Variation (%) vs control” value (fibroblasts; 11 ppm)?
Its value is −41%; p < 0.01.

What about the “PGE2 with UVB irradiation” value (fibroblasts; 11 ppm) of the same compound?
The value was 6117 +/− 735 ng/10^6 cell.

And the PGE2 without irradiation (fibroblasts; 11 ppm)?
Its PGE2 without irradiation is 6470 +/− 311 ng/10^6 cell.

What about the “Hyaluronic acid Variation (%) vs control” value (HaCaT keratinoctes [7]; 1.375 ppm) of the same compound?
Its value is “+35%; p < 0.01”.

What about the Hyaluronic acid (HaCaT keratinoctes [7]; 1.375 ppm) of the same compound?
The Hyaluronic acid was 402 +/− 35 ng/10^6 cell.

And the “Hyaluronic acid Variation (%) vs control” value (HaCaT keratinoctes [7]; 2.75 ppm)?
The value was “+31%; p < 0.01”.

What about the Hyaluronic acid (HaCaT keratinoctes [7]; 2.75 ppm) of the same compound?
The Hyaluronic acid was 391 +/− 25 ng/10^6 cell.

And the “Melanin Variation (%) vs control” value (B16 mouse pigment cells [8]; 5.5 ppm)?
The value was “+26%; p < 0.01”.

And the Melanin (B16 mouse pigment cells [8]; 5.5 ppm)?
The Melanin was 171.1 +/− 2.3 μg/mL/10^6 cell.

And the “Melanin Variation (%) vs control” value (B16 mouse pigment cells [8]; 11 ppm)?
Its value is “+62%; p < 0.01”.

And the Melanin (B16 mouse pigment cells [8]; 11 ppm)?
Its Melanin is 220.7 +/− 8.7 μg/mL/10^6 cell.

What about the “number of cells / toxicity” value (B16 mouse pigment cells [9]) of the same compound?
Its value is “neither toxic nor multiplication activator”.

What about the “number of cells / toxicity” value (NHM [10]) of the same compound?
The value was “neither toxic nor multiplication activator”.

What about the “Tyrosinase Variation (%) vs control” value (Tyrosinase; 5.5 ppm) of the same compound?
The value was “+9.7%; p < 0.01”.

What about the Tyrosinase (Tyrosinase; 5.5 ppm) of the same compound?
Its Tyrosinase is 2.8 +/− 0 U/1000 μg protein.

And the “Tyrosinase Variation (%) vs control” value (Tyrosinase; 11 ppm)?
The value was “+20.5%; p < 0.01”.

And the Tyrosinase (Tyrosinase; 11 ppm)?
Its Tyrosinase is 3.1 +/− 0 U/1000 μg protein.

What about the “Laminin Variation (%) vs control” value (HaCaT keratinoctes [11]; 2.75 ppm) of the same compound?
Its value is “+33%; p < 0.01”.

And the Laminin (HaCaT keratinoctes [11]; 2.75 ppm)?
The Laminin was 88 +/− 3 ng/10^6 cell.

What about the “Laminin Variation (%) vs control” value (HaCaT keratinoctes [11]; 5.5 ppm) of the same compound?
The value was “+69%; p < 0.01”.

And the Laminin (HaCaT keratinoctes [11]; 5.5 ppm)?
The Laminin was 111 +/− 9 ng/10^6 cell.

— US20240382403A1, “COSMETIC, DERMATOLOGICAL OR COSMECEUTICAL TREATMENT, IN PARTICULAR PROPIGMENTING” (Sederma, priority 2021, published 2024)
